Legend:
downy brome = experiment: Test C pre-/postemergence test; format: in vivo, Bromus tectorum; conditions: for Plant response rating, Bromegrass, Downy: scale 0 to 100, 0 no effect, 100 complete control
Method in brief: (§1)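 Test chemicals were formulated with surfactant in a non-phytotoxic solvent and sprayed both on freshly planted seeds (preemergence) and on 1- to 4-leaf plants of 2–18 cm (postemergence). Flooded-paddy pots received compound directly into 3 cm of standing water, maintained for the test.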

catchweed bedstraw = experiment: Test C pre-/postemergence test; format: in vivo, Galium aparine
Method in brief: as §1

johnsongrass = experiment: Test C pre-/postemergence test; format: in vivo, Sorghum halepense; conditions: for Johnsongrass plant response rating: preemergence, scale 0 (no effect) to 100 (complete control); for Plant response rating, Johnsongrass: scale 0 to 100, 0 no effect, 100 complete control
Method in brief: as §1

velvetleaf = experiment: Test A pre-/postemergence greenhouse test; format: in vivo, Abutilon theophrasti; conditions: for Velvetleaf plant response rating: 0 to 100 scale
Method in brief: (§2)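 Visual injury ratings against untreated controls, taken roughly ten days after treatment in greenhouse. Plants were sprayed postemergence at one- to two-leaf stage (2–10 cm tall); at the same time, seeded loam/sand soil received a directed preemergence spray. Formulation: non-phytotoxic solvent mixture with surfactant.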

soybean = experiment: Test C pre-/postemergence test; format: in vivo, Glycine max; conditions: for Plant response rating, Soybean: scale 0 to 100, 0 no effect, 100 complete control
Method in brief: as §1

morningglory = experiment: Test C pre-/postemergence test; format: in vivo, Ipomoea coccinea; conditions: for Plant response rating, Morningglory: scale 0 to 100, 0 no effect, 100 complete control
Method in brief: as §1

Surinam grass = experiment: Test C pre-/postemergence test; format: in vivo, Brachiaria decumbens; conditions: for Surinam Grass plant response rating: preemergence, scale 0 (no effect) to 100 (complete control); for Plant response rating, Surinam Grass: scale 0 to 100, 0 no effect, 100 complete control
Method in brief: as §1

corn = experiment: Test A pre-/postemergence greenhouse test; format: in vivo, Zea mays; conditions: for Corn plant response rating: 0 to 100 scale
Method in brief: as §2

barnyardgrass = experiment: Test C flooded paddy test; format: in vivo, Echinochloa crus-galli; conditions: Flood
Method in brief: (§3)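 Flooded 3 cm over soil; compound into paddy water; depth kept constant. Greenhouse 13–15 d.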

giant foxtail [1] = experiment: Test A pre-/postemergence greenhouse test; format: in vivo, Setaria faberi; conditions: for Foxtail, Giant plant response rating: 0 to 100 scale
Method in brief: as §2

bermudagrass = experiment: Test C pre-/postemergence test; format: in vivo, Cynodon dactylon; conditions: for Plant response rating, Bermudagrass: scale 0 to 100, 0 no effect, 100 complete control
Method in brief: as §1

rice = experiment: Test C flooded paddy test; format: in vivo, Oryza sativa; conditions: Flood
Method in brief: as §3

crabgrass = experiment: Test C pre-/postemergence test; format: in vivo, Digitaria sanguinalis; conditions: for Plant response rating, Crabgrass, Large: scale 0 to 100, 0 no effect, 100 complete control
Method in brief: as §1

pigweed = experiment: Test C pre-/postemergence test; format: in vivo, Amaranthus retroflexus; conditions: for Plant response rating, Pigweed: scale 0 to 100, 0 no effect, 100 complete control
Method in brief: as §1

lambsquarters = experiment: Test C pre-/postemergence test; format: in vivo, Chenopodium album; conditions: for Plant response rating, Lambsquarters: scale 0 to 100, 0 no effect, 100 complete control
Method in brief: as §1

wheat = experiment: Test A pre-/postemergence greenhouse test; format: in vivo, Triticum aestivum; conditions: for Wheat plant response rating: 0 to 100 scale
Method in brief: as §2

giant foxtail [2] = experiment: Test C pre-/postemergence test; format: in vivo, Setaria faberii; conditions: for Plant response rating, Foxtail, Giant: scale 0 to 100, 0 no effect, 100 complete control
Method in brief: as §1

[3] = 31 g ai/ha, Preemergence, scale 0 to 100
[4] = 62 g ai/ha, preemergence, scale 0 (no effect) to 100 (complete control)
[5] = preemergence, 125 g ai/ha, scale 0 (no effect) to 100 (complete control)
[6] = Postemergence, 125 g ai/ha, 0 is no effect, 100 is complete control
[7] = Postemergence, 500 g ai/ha, 0 is no effect, 100 is complete control
[8] = Preemergence, 125 g ai/ha, 0 no effect, 100 complete control
[9] = Preemergence, 500 g ai/ha, 0 to 100 scale where 0 is no effect and 100 is complete control
[10] = 31 g ai/ha, scale 0 to 100 (0 no effect, 100 complete control)
[11] = 62 g ai/ha, scale 0 to 100, 0 no effect, 100 complete control, 13 to 15 days
[12] = 125 g ai/ha, scale 0 to 100, 0 no effect, 100 complete control, 13 to 15 days
[13] = 250 g ai/ha, scale 0 to 100 (0 no effect, 100 complete control)

Cn1nc(C(F)(F)F)c(C[S+]([O-])c2cccc[n+]2[O-])c1OC(F)F (stereo not drawn) [Compound 3]
Bromegrass, Downy plant response rating (downy brome; [3]): 0
Bromegrass, Downy plant response rating (downy brome; [4]): 60
Plant response rating (0 to 100), Bromegrass, Downy (downy brome; Postemergence, 31 g ai/ha): 0
Plant response rating, Bromegrass, Downy (downy brome; Postemergence, 62 g ai/ha): 0
Plant response rating, Bromegrass, Downy (downy brome; Postemergence, 125 g ai/ha): 0
Plant response rating, Bromegrass, Downy (downy brome; Postemergence, 250 g ai/ha): 0
Plant response rating (0 to 100), Bromegrass, Downy (downy brome; Preemergence, 250 g ai/ha): 100
Bromegrass, Downy plant response rating (downy brome; [5]): 98
Galium plant response rating (catchweed bedstraw; [3]): 0
Galium plant response rating (catchweed bedstraw; [4]): 0
Plant response rating (0 to 100), Galium (catchweed bedstraw; Preemergence, 250 g ai/ha): 100
Galium plant response rating (catchweed bedstraw; [5]): 95
Johnsongrass plant response rating (johnsongrass; 62 g ai/ha): 98
Plant response rating (0 to 100), Johnsongrass (johnsongrass; Postemergence, 31 g ai/ha): 0
Plant response rating, Johnsongrass (johnsongrass; Postemergence, 62 g ai/ha): 0
Plant response rating, Johnsongrass (johnsongrass; Postemergence, 125 g ai/ha): 20
Plant response rating, Johnsongrass (johnsongrass; Postemergence, 250 g ai/ha): 20
Plant response rating (0 to 100), Johnsongrass (johnsongrass; Preemergence, 250 g ai/ha): 100
Johnsongrass plant response rating (johnsongrass; 125 g ai/ha): 100
Velvetleaf plant response rating (velvetleaf; [6]): 50
Velvetleaf plant response rating (velvetleaf; [7]): 90
Velvetleaf plant response rating (velvetleaf; [8]): 70
Plant response rating, Velvetleaf (velvetleaf; [9]): 90
Soybean plant response rating (soybean; [3]): 5
Soybean plant response rating (soybean; [4]): 30
Plant response rating (0 to 100), Soybean (soybean; Postemergence, 31 g ai/ha): 40
Plant response rating (0 to 100), Soybean (soybean; Postemergence, 62 g ai/ha): 60
Plant response rating, Soybean (soybean; Postemergence, 125 g ai/ha): 70
Plant response rating, Soybean (soybean; Postemergence, 250 g ai/ha): 85
Plant response rating (0 to 100), Soybean (soybean; Preemergence, 250 g ai/ha): 95
Soybean plant response rating (soybean; [5]): 95
Morningglory plant response rating (morningglory; [3]): 50
Morningglory plant response rating (morningglory; [4]): 90
Plant response rating (0 to 100), Morningglory (morningglory; Postemergence, 31 g ai/ha): 5
Plant response rating, Morningglory (morningglory; Postemergence, 62 g ai/ha): 50
Plant response rating, Morningglory (morningglory; Postemergence, 125 g ai/ha): 50
Plant response rating, Morningglory (morningglory; Postemergence, 250 g ai/ha): 50
Plant response rating (0 to 100), Morningglory (morningglory; Preemergence, 250 g ai/ha): 100
Morningglory plant response rating (morningglory; [5]): 100
Surinam Grass plant response rating (Surinam grass; 62 g ai/ha): 100
Plant response rating (0 to 100), Surinam Grass (Surinam grass; Postemergence, 31 g ai/ha): 0
Plant response rating (0 to 100), Surinam Grass (Surinam grass; Postemergence, 62 g ai/ha): 0
Plant response rating, Surinam Grass (Surinam grass; Postemergence, 125 g ai/ha): 50
Plant response rating, Surinam Grass (Surinam grass; Postemergence, 250 g ai/ha): 55
Plant response rating (0 to 100), Surinam Grass (Surinam grass; Preemergence, 250 g ai/ha): 100
Surinam Grass plant response rating (Surinam grass; 125 g ai/ha): 100
Corn plant response rating (corn; [6]): 60
Corn plant response rating (corn; [7]): 80
Corn plant response rating (corn; [8]): 30
Plant response rating, Corn (corn; [9]): 90
Plant response rating, Barnyardgrass (barnyardgrass; [10]): 0
Plant response rating, Barnyardgrass (barnyardgrass; [11]): 50
Plant response rating, Barnyardgrass (barnyardgrass; [12]): 75
Plant response rating, Barnyardgrass (barnyardgrass; [13]): 85
Foxtail, Giant plant response rating (giant foxtail [1]; [6]): 80
Foxtail, Giant plant response rating (giant foxtail [1]; [7]): 90
Foxtail, Giant plant response rating (giant foxtail [1]; [8]): 100
Plant response rating, Foxtail, Giant (giant foxtail [1]; [9]): 100
Bermudagrass plant response rating (bermudagrass; [3]): 80
Bermudagrass plant response rating (bermudagrass; [4]): 100
Plant response rating (0 to 100), Bermudagrass (bermudagrass; Postemergence, 31 g ai/ha): 0
Plant response rating, Bermudagrass (bermudagrass; Postemergence, 125 g ai/ha): 50
Plant response rating, Bermudagrass (bermudagrass; Postemergence, 250 g ai/ha): 50
Plant response rating (0 to 100), Bermudagrass (bermudagrass; Preemergence, 250 g ai/ha): 100
Bermudagrass plant response rating (bermudagrass; [5]): 100
Plant response rating, Rice (rice; [10]): 0
Plant response rating, Rice (rice; [11]): 0
Plant response rating, Rice (rice; [12]): 60
Plant response rating, Rice (rice; [13]): 70
Crabgrass, Large plant response rating (crabgrass; [3]): 45
Crabgrass, Large plant response rating (crabgrass; [4]): 98
Plant response rating (0 to 100), Crabgrass, Large (crabgrass; Postemergence, 31 g ai/ha): 0
Plant response rating, Crabgrass, Large (crabgrass; Postemergence, 62 g ai/ha): 0
Plant response rating, Crabgrass, Large (crabgrass; Postemergence, 125 g ai/ha): 50
Plant response rating, Crabgrass, Large (crabgrass; Postemergence, 250 g ai/ha): 70
Plant response rating (0 to 100), Crabgrass, Large (crabgrass; Preemergence, 250 g ai/ha): 100
Crabgrass, Large plant response rating (crabgrass; [5]): 100
Pigweed plant response rating (pigweed; [3]): 75
Pigweed plant response rating (pigweed; [4]): 100
Plant response rating (0 to 100), Pigweed (pigweed; Postemergence, 31 g ai/ha): 0
Plant response rating (0 to 100), Pigweed (pigweed; Postemergence, 62 g ai/ha): 0
Plant response rating, Pigweed (pigweed; Postemergence, 125 g ai/ha): 10
Plant response rating, Pigweed (pigweed; Postemergence, 250 g ai/ha): 60
Plant response rating (0 to 100), Pigweed (pigweed; Preemergence, 250 g ai/ha): 100
Pigweed plant response rating (pigweed; [5]): 100
Lambsquarters plant response rating (lambsquarters; [3]): 98
Lambsquarters plant response rating (lambsquarters; [4]): 100
Plant response rating (0 to 100), Lambsquarters (lambsquarters; Postemergence, 31 g ai/ha): 10
Plant response rating, Lambsquarters (lambsquarters; Postemergence, 62 g ai/ha): 15
Plant response rating, Lambsquarters (lambsquarters; Postemergence, 125 g ai/ha): 20
Plant response rating, Lambsquarters (lambsquarters; Postemergence, 250 g ai/ha): 20
Plant response rating (0 to 100), Lambsquarters (lambsquarters; Preemergence, 250 g ai/ha): 100
Lambsquarters plant response rating (lambsquarters; [5]): 100
Wheat plant response rating (wheat; [6]): 60
Wheat plant response rating (wheat; [7]): 70
Wheat plant response rating (wheat; [8]): 60
Plant response rating, Wheat (wheat; [9]): 100
Foxtail, Giant plant response rating (giant foxtail [2]; [3]): 60
Foxtail, Giant plant response rating (giant foxtail [2]; [4]): 90
Plant response rating (0 to 100), Foxtail, Giant (giant foxtail [2]; Postemergence, 31 g ai/ha): 0
Plant response rating, Foxtail, Giant (giant foxtail [2]; Postemergence, 62 g ai/ha): 40
Plant response rating, Foxtail, Giant (giant foxtail [2]; Postemergence, 125 g ai/ha): 50
Plant response rating, Foxtail, Giant (giant foxtail [2]; Postemergence, 250 g ai/ha): 55
Plant response rating (0 to 100), Foxtail, Giant (giant foxtail [2]; Preemergence, 250 g ai/ha): 100
Foxtail, Giant plant response rating (giant foxtail [2]; [5]): 98

From US20100298141A1, “SUBSTITUTED PYRIDINE N-OXIDE HERBICIDES” (E. I. DU PONT DE NEMOURS AND COMPANY, priority 2007, published 2010)
